Measurements reported in publication PMC11742080, “Decavanadate Compound Displays In Vitro and In Vivo Antitumor Effect on Melanoma Models” (Bioinorganic Chemistry and Applications, 2025).
Several values for one entry are separate records, joined by “and”; a condition that tells them apart may be missing. Equal entries are not always repeated.

Experiments:
[1] = Stability of the stock solution (activity retained); format: physicochemical; details: 1 mg/mL stock kept at +4°C, experiments repeated after 2 months
Method: Four cutaneous melanoma cell lines IGR39, IGR37, SKMEL28, and B16-F10 were treated with increasing concentrations of the decavanadate compound (Figure 3). A stock solution was prepared at a concentration of 1 mg/mL and kept at a temperature of +4°C. The dilutions were made just before the treatment. Figures 3(a) and 3(b) show the dose–response effect of Mg2Na2V10O28·20H2O compound on the viability of different melanoma cell lines, after 24 and 72 h of treatments, respectively.

[2] = system: IGR39 human melanoma cells; experiment: MTT cell viability assay, IGR39; format: cell-based
Method: (§1) The MTT assay was first described as a sensitive, quantitative, and reliable colorimetric assay to measure the viability, proliferation, and activation of cells. Cell viability was assessed at 24 and 72 h of treatment to evaluate cytotoxicity and the effect on cell proliferation of the decavanadate compound, respectively. The concentrations of the decavanadate compound have been determined by weighing the compound in its crystal form and then solubilizing it in distilled water.
(§2) All cell lines were seeded in 96-well plates (Nunc, Roskilde, Denmark) at a density of 10^4 cells per well and were incubated overnight, before treatment with different concentrations of the decavanadate compound. After 24 or 72 h of treatment, fresh media solution containing MTT at 0.5 mg/mL was added to cells and incubated for 3 h at 37°C. The formed formazan crystals were then dissolved in DMSO, and the absorbance was measured at 560 nm using a BioTek EON Microplate Spectrophotometer (Fisher Scientific). Cell viability was expressed as a percentage of the viable cell number of the untreated cells (control [CTR]).
(§3) The concentration of the decavanadate compound required for 50% growth inhibition (IC50 value) was estimated as resulting in a 50% decrease in absorbance, compared to the CTR.

[3] = system: IGR39 human melanoma cells; experiment: Wound healing (scratch) cell migration assay; format: cell-based; details: 24 h treatment
Method: Wound healing (or scratch) assay is a method to measure two-dimensional cell migration. An artificial gap is generated on a confluent cell monolayer, and the movement is tracked via microscopy or other imaging. Melanoma cells were seeded in 24-well plates at 15 × 10^4 cells per well and incubated for 24–48 h. After cells reached 90% confluence, wounds were generated using a 10 μL micropipette tip. Media were removed, and the cells were washed with 500 μL PBS and then incubated in a fresh medium containing different concentrations (not showing cytotoxic effect) of the decavanadate compound. After 24 h of treatment, cells were washed with PBS, fixed with cold ethanol, and stained with Giemsa. Images were acquired on an inverted microscope at T0 and after 24 h (T24). The percentage of cell migration was calculated using the following formula: cell migration(%)=[(T0 − T24))/(T0)] × 100 where T0 is the wound area at zero time and T24 is the wound area after 24 h. All the pictures were taken with a DM-IRE microscope (Leica, Rueil-Malmaison, France) coupled with a digital camera (CCD camera CoolSNAP FX, Princeton Instruments, Trenton, NJ).

[4] = system: IGR37 human melanoma cells; experiment: MTT cell viability assay, IGR37; format: cell-based
Method: as §1, §2, §3

[5] = system: IGR39 human melanoma cells; experiment: Cell adhesion assay (collagen, fibronectin, poly-L-lysine); format: cell-based
Method: Adhesion assays were performed as previously described by Morjen et al.. Briefly, flat-bottom 96-well microtiter plates were coated for 2 h at 37°C with fibronectin or collagen at 10 μg/mL, as extracellular matrix (ECM) proteins, or poly-L-lysine at 50 μg/mL, as a nonspecific attachment substrate. Plates were then washed with PBS and blocked by BSA. IGR39 cells were harvested and resuspended in DMEM, in the presence or absence (CTR) of the tested molecule. After incubation for 30 min at room temperature, cells were added to coated wells in a volume of 50 μL (50,000 cells) and allowed to adhere to the substrate for 1 h at 37°C. Unattached cells were removed by gently washing three times with an adhesion buffer. Residual attached cells were fixed by 1% glutaraldehyde, stained by 0.1% crystal violet, and lysed with 1% SDS. The absorbance was then measured at 600 nm by a microplate reader.

Swiss albino mice = experiment: In vivo toxicity/safety assessment, 12 days i.p.; details: for ALT / AST / Creatinine: plasma
Method: In order to investigate the safety of the Mg2Na2V10O28·20H2O compound, three doses of 20, 50, and 100 μg were tested on male Swiss albino mice of ∼20 g weight each. Mice were randomly allocated in four groups of eight mice each. These doses correspond to 1, 2.5, and 5 mg/kg, respectively. A stock solution of 7.5 mg/mL (5.5 mM) was first prepared in PBS (1x). Dilutions were done to obtain 3 solutions of 0.2 mg/mL (146 μM), 0.5 mg/mL (366 μM), and 1 mg/mL (732 μM) in PBS, from which a volume of 100 μL was injected to each mouse, corresponding to the three doses. These doses were chosen based on our previous study. Mice of the CTR group received 100 μL of PBS. Decavanadate compound or vehicle was administered daily by intraperitoneal injection for 12 consecutive days in the morning between 09:00 and 10:00 a.m.
Animals were observed individually for general behavior, toxicity symptoms, and mortality during the first 30 min and then daily during the experiment. The body weights were measured at the beginning and at the end of the […]. On Day 12, blood samples were drawn from the facial vein of each mouse, using capillary tubes, containing heparin (as an anticoagulant component), for biochemical parameters studies. Mice were then sacrificed by cervical dislocation, and their organs (liver and kidney) were excised. The organs were then fixed in 10% buffered formalin for histopathological examination.
Plasma samples were obtained by blood centrifugation at 3000 rpm for 10 min and kept at −20°C. The activities of hepatic enzymes, such as aspartate aminotransferase (AST) and alanine aminotransferase (ALT), and creatinine levels were assessed with commercially available diagnostic kits supplied by Biomaghreb Laboratories (Tunisia). Enzymatic activity was expressed in international units per liter (IU/L). Additionally, we focused on measuring the activity of enzymes involved in hepatic metabolism to evaluate the effect of decavanadate accumulation on liver function. Creatinine level was expressed in mg/L.
Liver and kidney organs in formalin were washed and dehydrated using alcohol. Paraffin-embedded sections were cut at 5-6 μm thickness and stained with hematoxylin and eosin for microscopic examination at 20x and 40x magnification.

For “dimagnesium disodium decavanadate icosahydrate [Mg2Na2V10O28·20H2O]”, which “Stability of stock solution” value [1] is on record?
Its value is “the compound is stable”.

What about the IC50 ([2]; IGR39, 24 h treatment) of the same substance?
Its IC50 is 18 µM.

What about the IC50 ([2]; IGR39, 72 h treatment) of the same substance?
The IC50 was 5.2 µM.

What about the IC50 [3] of the same substance?
Its IC50 is 2.23 µM.

And the “IC50, IGR39 cell migration” value [3]?
The value was 3.16 µg/mL.

What about the IC50 ([4]; IGR37, 24 h treatment) of the same substance?
Its IC50 is 12.7 µM.

What about the IC50 ([4]; IGR37, 72 h treatment) of the same substance?
Its IC50 is 1.4 µM.

What about the “IC50, cell viability” value ([4]; IGR37, 72 h treatment) of the same substance?
The value was 2 µg/mL.

What about the “Inhibition of adhesion of IGR39 cells on fibronectin” value ([5]; 5 μg/mL) of the same substance?
Its value is 47%.

What about the “IC50, IGR39 cell attachment to collagen” value ([5]; collagen 10 μg/mL coating, 30 min pretreatment, 1 h adhesion) of the same substance?
The value was 3.78 µg/mL.

What about the IC50 ([5]; collagen 10 μg/mL coating, 30 min pretreatment, 1 h adhesion, read-out: IC50, IGR39 cell attachment to collagen) of the same substance?
Its IC50 is 2.67 µM.

And the “Reduction of IGR39 cell attachment to collagen” value ([5]; highest concentration 5 μg/mL (3.5 μM))?
Its value is 60%.

What about the “Effect on adhesion of IGR39 cells to poly-L-lysine” value ([5]; up to 5 μg/mL, nonspecific substrate) of the same substance?
Its value is “no effect”.

What about the Liver histological analysis (Swiss albino mice; 50 μg (2.5 mg/kg), 12 days) of the same substance?
Its Liver histological analysis is “necrosis”.

And the Liver histological analysis (Swiss albino mice; 100 μg (5 mg/kg), 12 days)?
Its Liver histological analysis is “lymphohistiocytic inflammatory infiltrate in the portal tract”.

And the “Biochemical parameters (AST, ALT, creatinine) versus control” value (Swiss albino mice; 1 mg/kg i.p. daily, 12 days)?
Its value is “comparable to the negative CTR”.

And the ALT (Swiss albino mice; 2.5 mg/kg i.p. daily, 12 days)?
Its ALT is 48.75 ± 2.96 IU/L.

And the AST (Swiss albino mice; 2.5 mg/kg i.p. daily, 12 days)?
Its AST is 32.83 ± 1.09 IU/L.

What about the Creatinine (Swiss albino mice; 2.5 mg/kg i.p. daily, 12 days) of the same substance?
The Creatinine was 2.45 mg/L and 2.45 ± 0.28^∗ mg/L.

What about the Kidney histology (Swiss albino mice; 2.5 mg/kg, 12 days) of the same substance?
The Kidney histology was “no difference compared to those of the CTR group”.

And the ALT (Swiss albino mice; 5 mg/kg i.p. daily, 12 days)?
The ALT was 81.67 ± 5.12^∗∗∗ IU/L.

What about the AST (Swiss albino mice; 5 mg/kg i.p. daily, 12 days) of the same substance?
Its AST is 45.63 ± 1.21^∗∗ IU/L.

And the Creatinine (Swiss albino mice; 5 mg/kg i.p. daily, 12 days)?
Its Creatinine is 2.80 ± 0.312^∗∗ mg/L.

And the Kidney histology (Swiss albino mice; 5 mg/kg, 12 days)?
Its Kidney histology is “mild interstitial lymphocytic inflammatory infiltrate”.

And the “Mortality and signs of toxicity (weight loss, behavioral abnormalities)” value (Swiss albino mice; 1, 2.5 or 5 mg/kg, i.p. daily for 12 days, Swiss albino mice)?
Its value is “No mortality or signs of toxicity”.
